Assay results taken from patent US4769382A, “Preparation for preventing and treatment of skin radiation burn lesions” (priority 1986, dated 1988).

Columns and labels:
Assay type in all cases: in vivo, random-bred albino rats
[1] = tested on: skin of the auricle (rat); experiment: Local radioprotective effect on skin of rat auricle upon β-irradiation (60 Gy); conditions: β-radiation; for Duration of response, dry desquamation / Duration of response, moist desquamation / Duration of response, severe erythema / Duration of response, weak erythema: Eeff 0.76 MeV, applied 20 minutes before irradiation, X ± m
Description: The effect of β-radiation was studied on the skin of floors of the auricle by way of using a flexible applicator containing a source of a soft beta-radiation of ^204 T1. The maximum energy (E) in tissues is […]. The dose rate of the employed sources was 7.2 and 12 Gy/h. […] The extent of the skin radioprotective effect was assessed by a number of clinical dermatological tests by recording visual observations over the progress of radiation dermatitis. The tests were effected by the blank method at strictly predetermined hours of the day by a team of specialists. The form of dermatitis in each irradiated skin locus (moist or dry desquamation, intense and weak erythema) was recorded daily by means of special codes over the entire observation period. The number of the same codes for every irradiated skin locus (frequencies of features) were summed up and a group mean value was calculated. […] The thus-obtained values were statistically processed and evaluated by means of the Student criterion. Therefore, the severity of radiodermatitis was quantified by means of the following tests: (a) duration of periods of light and severe erythema; (b) duration of periods of moist and dry desquamation.

back skin (rat) = experiment: Antiburning effect on thermal burn (III degree) of the back skin
Description: Since the leading role in the pathogenesis of thermal death of cells is played by processes of injury of cellular membranes, the preparation according to the present invention has been tested for feasibility of its use as an antiburning preparation. […] The contact plate of the electric heater had the temperature of 200° C., the exposure time--10 seconds. […] As judged by the clinico-histological assessment, the severity of the thus-produced injury corresponded to a III degree burn. The course of treatment of the animals was started directly after effecting an experimental burn and continued till a complete healing of the wound surface. […] The ointments were prepared on lanolin or vaseline base with different content of the active principle. […] Vaseline and lanolin were used as control.

skin (rat) = experiment: Comparative evaluation of radioprotective effect with known preparations, local X-ray irradiation 30 Gy
From the text: For a comparative evaluation the data obtained in a similar experiment with a number of known preparations (castamine, ionol, dimethylsulphoxide), as well as with eugenol (3-methoxy-4-hydroxyallylbenzene) and castor oil were used.
Ionol (4-methyl-2,6-ditretbutylphenol) is employed as control as an analog-antioxidant featuring a radioprotective activity.

skin of paws (rat) = experiment: Radioprotective effect on skin of rat paws upon X-ray irradiation (20 and 30 Gy); conditions: 20 Gy
[2] = Eeff 8 keV, groups 5 (dimethylsulphoxide) and 6 (5% emulsion on vaseline), X ± m

CCOC(=O)C1=C(C)NC(C)=C(C(=O)OCC)C1 [Compound of the invention, 2,6-dimethyl-3,5-diethoxycarbonyl-1,4-dihydropyridine]
Diminution of response, dry desquamation [1]: 86 % of the control
Diminution of response, moist desquamation [1]: 100 % of the control
Diminution of response, severe erythema [1]: 86 % of the control
Duration of response, dry desquamation [1]: 0.3 ± 0.2 days
Duration of response, moist desquamation [1]: 0.0 ± 0.0 days
Duration of response, severe erythema [1]: 0.3 ± 0.3 days
Duration of response, weak erythema [1]: 1.7 ± 0.5 days

CC(C)(CO)C(O)C(=O)NCCCO (stereo not shown) [Panthenol]
Healing period, female (back skin (rat); female rats, control I (vaseline) 36.8 ± 6.8, control 2 (lanolin) 36.5 ± 6.5): 36.0 ± 7.0 days
Stimulant effect, female (back skin (rat); female rats, relative to control I (vaseline)): +2.2%
Healing period, male (back skin (rat); male rats, control I (vaseline) 32.8 ± 4.0, control 2 (lanolin) 33.1 ± 3.5): 29.7 ± 4.3 days
Stimulant effect, male (back skin (rat); male rats, relative to control 2 (lanolin)): +10,3%

Cc1cc(C(C)(C)C)c(O)c(C(C)(C)C)c1 [Ionol, 4-methyl-2,6-ditertiarybutylphenol]
Reduction of duration of radiation response stages, erythema (skin (rat)): 28.0%
Reduction of duration of radiation response stages, moist desquamation (skin (rat)): 43.0%
Total weighed evaluation (skin (rat)): 37.85%

C=CCc1ccc(O)c(OC)c1 [Eugenol, 3-methoxy-4-hydroxyallylbenzene]
Reduction of duration of radiation response stages, moist desquamation (skin (rat)): 36.0%
Total weighed evaluation (skin (rat)): 27.5%

C[S+](C)[O-] [Dimethylsulphoxide, dimethylsulphoxide]
Diminution of response, moist desquamation [1]: 100 % of the control
Duration of response, dry desquamation [1]: 1.0 ± 1.2 days
Duration of response, moist desquamation [1]: 0.0 ± 0.0 days
Duration of response, severe erythema [1]: 1.3 ± 1.7 days
Duration of response, weak erythema [1]: 1.7 ± 1.7 days
Diminution of response, dry desquamation (skin of paws (rat)): 50 % of the control
Duration of response, dry desquamation (skin of paws (rat); [2]): 2.8 ± 0.6 days
Duration of response, moist desquamation (skin of paws (rat); [2]): 0.1 ± 0.1 days
Duration of response, severe erythema (skin of paws (rat); [2]): 0.4 ± 0.3 days
Duration of response, weak erythema (skin of paws (rat); [2]): 1.6 ± 0.3 days
Reduction of duration of radiation response stages, moist desquamation (skin (rat)): 30.0%
Total weighed evaluation (skin (rat)): 22.5%
